The results in this text go back to BindingDB's records for patent US11547697 (Millennium Pharmaceuticals, 2023).

SMILES strings stand for the structures.

Phosphatidylinositol 4,5-bisphosphate 3-kinase catalytic subunit beta isoform, sequence (P42338 whole entry, canonical isoform): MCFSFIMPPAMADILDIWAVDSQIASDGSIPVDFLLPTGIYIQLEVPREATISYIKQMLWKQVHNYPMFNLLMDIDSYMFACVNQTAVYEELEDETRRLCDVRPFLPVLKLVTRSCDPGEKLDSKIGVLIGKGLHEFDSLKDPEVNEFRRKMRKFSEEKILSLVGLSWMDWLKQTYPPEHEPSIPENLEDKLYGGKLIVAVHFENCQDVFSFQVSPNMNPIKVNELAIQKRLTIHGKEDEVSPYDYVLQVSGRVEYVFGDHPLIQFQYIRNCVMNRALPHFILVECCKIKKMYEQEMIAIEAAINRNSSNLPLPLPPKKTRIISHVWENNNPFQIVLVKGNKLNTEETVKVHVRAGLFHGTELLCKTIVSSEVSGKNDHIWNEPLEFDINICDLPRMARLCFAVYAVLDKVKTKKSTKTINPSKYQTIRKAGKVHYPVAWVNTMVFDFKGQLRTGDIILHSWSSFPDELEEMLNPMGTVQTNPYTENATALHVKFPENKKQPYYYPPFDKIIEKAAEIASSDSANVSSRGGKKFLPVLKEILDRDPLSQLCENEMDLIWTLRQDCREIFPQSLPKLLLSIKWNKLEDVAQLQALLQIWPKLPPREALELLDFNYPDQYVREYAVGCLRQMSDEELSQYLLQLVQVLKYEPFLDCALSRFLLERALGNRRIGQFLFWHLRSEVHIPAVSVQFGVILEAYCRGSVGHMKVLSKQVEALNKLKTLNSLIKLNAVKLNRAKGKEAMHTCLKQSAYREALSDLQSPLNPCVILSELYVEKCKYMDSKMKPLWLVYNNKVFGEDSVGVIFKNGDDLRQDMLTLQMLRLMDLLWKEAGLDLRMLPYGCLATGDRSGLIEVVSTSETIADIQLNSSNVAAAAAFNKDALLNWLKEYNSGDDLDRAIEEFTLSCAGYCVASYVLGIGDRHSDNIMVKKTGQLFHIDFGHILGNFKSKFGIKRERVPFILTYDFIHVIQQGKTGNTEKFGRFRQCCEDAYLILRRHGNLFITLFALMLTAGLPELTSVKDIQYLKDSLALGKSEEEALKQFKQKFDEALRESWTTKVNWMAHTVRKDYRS

For one test, the target named is T1, Phosphatidylinositol 4,5-bisphosphate 3-kinase catalytic subunit delta isoform (Homo sapiens, UniProt O00329).
T1 sequence (O00329 whole entry): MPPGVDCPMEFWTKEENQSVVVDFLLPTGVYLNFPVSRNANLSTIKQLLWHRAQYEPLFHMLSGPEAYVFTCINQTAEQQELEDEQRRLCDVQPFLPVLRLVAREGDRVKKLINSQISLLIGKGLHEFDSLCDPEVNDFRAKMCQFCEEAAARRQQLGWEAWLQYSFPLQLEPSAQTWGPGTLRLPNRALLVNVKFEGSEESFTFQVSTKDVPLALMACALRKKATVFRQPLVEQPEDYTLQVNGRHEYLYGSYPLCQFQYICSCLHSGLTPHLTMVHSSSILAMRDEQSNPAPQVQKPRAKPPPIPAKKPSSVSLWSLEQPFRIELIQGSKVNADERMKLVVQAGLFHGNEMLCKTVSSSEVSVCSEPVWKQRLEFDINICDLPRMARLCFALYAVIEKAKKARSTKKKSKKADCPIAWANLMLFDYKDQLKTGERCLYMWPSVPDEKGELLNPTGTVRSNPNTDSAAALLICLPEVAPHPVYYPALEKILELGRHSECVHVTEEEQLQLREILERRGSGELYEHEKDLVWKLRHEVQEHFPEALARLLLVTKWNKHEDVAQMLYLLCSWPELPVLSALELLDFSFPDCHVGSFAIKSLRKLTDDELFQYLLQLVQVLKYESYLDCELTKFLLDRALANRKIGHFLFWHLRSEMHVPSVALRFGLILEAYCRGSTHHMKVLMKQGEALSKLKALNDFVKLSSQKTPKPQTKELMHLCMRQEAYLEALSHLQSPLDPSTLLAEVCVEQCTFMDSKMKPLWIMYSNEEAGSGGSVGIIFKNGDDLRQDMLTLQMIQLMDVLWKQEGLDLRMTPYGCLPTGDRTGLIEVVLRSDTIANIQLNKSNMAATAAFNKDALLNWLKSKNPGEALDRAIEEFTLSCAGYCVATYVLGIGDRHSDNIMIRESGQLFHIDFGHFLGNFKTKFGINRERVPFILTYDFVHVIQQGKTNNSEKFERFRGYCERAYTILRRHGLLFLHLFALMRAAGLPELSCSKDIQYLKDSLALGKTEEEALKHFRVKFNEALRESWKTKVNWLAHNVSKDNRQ
Kind of test: Inhibition Assay of PI3K.
Description: (§1) An exemplary system is PI 3-Kinase (human) HTRF Assay from Upstate. […] Briefly, the assay is a time resolved FRET assay that indirectly measures PIP3 product formed by the activity of a PI3-K. The kinase reaction is performed in a microtitre plate (e.g., a 384 well microtitre plate). The total reaction volume is approximately 20 ul per well. In the first step, each well receives 2 ul of test compound in 20% dimethylsulphoxide resulting in a 2% DMSO final concentration. Next, approximately 14.5 ul of a kinase/PIP2 mixture (diluted in 1× reaction buffer) is added per well for a final concentration of 0.25-0.3 ug/ml kinase and 10 μM PIP2. The plate is sealed and incubated for 15 minutes at room temperature. To start the reaction, 3.5 ul of ATP (diluted in 1× reaction buffer) is added per well for a final concentration of 10 μM ATP. The plate is sealed and incubated for 1 hour at room temperature. The reaction is stopped by adding 5 ul of Stop Solution per well and then 5 ul of Detection Mix is added per well. The plate is sealed, incubated for 1 hour at room temperature, and then read on an appropriate plate reader.
Take `COCCN1CCN(c2cnc3ccc(-c4ccc5oc(N)nc5c4)cc3n2)CC1` [US11547697, Compound 387]: the IC50 is more than 10 µM.

Compound `Nc1nc2cc(-c3cc(F)c4oc(N)nc4c3)ccc2o1` [US11547697, Compound 432] showed an IC50 of more than 10 µM.

In turn, `C[C@H]1CN(c2cnc3ccc(-c4ccc5nc(N)sc5c4)cc3n2)CCN1` [US11547697, Compound 308] had an IC50 of more than 10 µM.

As to `Nc1nc2cc(-c3ccc4nccn4c3)ccc2o1` [US11547697, Compound 40], the IC50 is more than 10 µM.

In turn, `Nc1nc2cc(-c3ccc4ncc(=O)[nH]c4c3)ccc2o1` [US11547697, Compound 72] registered an IC50 of more than 10 µM.

`Nc1nc2ccc(-c3ccc4ncc(N5CCOCC5)nc4c3)cc2o1` [US11547697, Compound 117] had an IC50 of more than 10 µM.

In the case of `Nc1nc2cc(-c3ccn4ncc(C(=O)N5CCCC5)c4c3)ccc2o1` [US11547697, Compound 346], the IC50 was more than 10 µM.

Take `Nc1nc2cc(-c3ccc4ncn(CCN5CCOCC5)c(=O)c4c3)ccc2o1` [US11547697, Compound 289]: the IC50 is more than 10 µM.

`Nc1nc2cc(-c3ccc4ncc(-c5ccccn5)nc4c3)ccc2o1` [US11547697, Compound 195] came in with an IC50 of more than 10 µM.

Consider `Nc1nc2cc(-c3ccc4ncc(N5CCN(C6CC6)CC5)nc4c3)ccc2o1` [US11547697, Compound 261], for which the IC50 was more than 10 µM.

`Nc1nc2cc(-c3ccc4ncc(C(=O)N5CCOCC5)n4n3)ccc2o1` [US11547697, Compound 105] displayed an IC50 of more than 10 µM.

In turn, `CC1CN(C(=O)c2cnc3ccc(-c4ccc5oc(N)nc5c4)cn23)CCO1` (centres undefined) [US11547697, Compound 201] gave an IC50 of more than 10 µM.

Compound `Nc1nc2cc(-c3ccc4ncc(C(=O)N5CC6(C5)OCCO6)n4c3)ccc2o1` [US11547697, Compound 494] gave an IC50 of more than 10 µM.

Regarding `Nc1nc2cc(-c3ccc4ncc(N5CCOCC5)nc4c3)ccc2s1` [US11547697, Compound 116], the IC50 was more than 10 µM.

For `CC(=O)Nc1nc2cc(-c3cc(F)c4oc(N)nc4c3)ccc2s1` [US11547697, Compound 435], the IC50 is more than 10 µM.

As to `Nc1nc2cc(-c3ccc4ncc(C(=O)N5CCn6cncc6C5)n4c3)ccc2o1` [US11547697, Compound 493], the IC50 is more than 10 µM.

For the compound `Nc1nc2cc(-c3ccn4ncc(C(=O)N5CCOCC5)c4c3)ccc2o1` [US11547697, Compound 347], the IC50 was more than 10 µM.

`CN1CCN(c2cnc3ccc(-c4ccc5sc(N)nc5c4)cc3n2)CC1` [US11547697, Compound 127]: the IC50 was more than 10 µM.

Regarding `Nc1nc2cc(-c3ccc4ncc(C(=O)N(CCO)CCO)n4c3)ccc2o1` [US11547697, Compound 316], the IC50 was more than 10 µM.

Turning to `CC(=O)Nc1n[nH]c2cc(-c3ccc4oc(N)nc4c3)ccc12` [US11547697, Compound 430], the IC50 was more than 10 µM.

Compound `CN(CCN1CCOCC1)c1cnc2ccc(-c3ccc4oc(N)nc4c3)cc2n1` [US11547697, Compound 166] displayed an IC50 of more than 10 µM.

`C[C@@H]1COCCN1C(=O)c1cnc2ccc(-c3ccc4oc(N)nc4c3)cn12` [US11547697, Compound 495] had a concentration for half-maximal inhibition (IC50) of more than 10 µM.

`Nc1nc2cc(-c3ccc4sc(N)nc4c3)cc(F)c2o1` [US11547697, Compound 437] showed an IC50 of more than 10 µM.

As for `CN1CCN(C(=O)c2cnc3ccc(-c4ccc5nc(N)oc5c4)cn23)CC1` [US11547697, Compound 145], the IC50 was more than 10 µM.

With `CN1CCCN(c2cnc3ccc(-c4ccc5oc(N)nc5c4)cc3n2)CC1` [US11547697, Compound 136], the IC50 is more than 10 µM.

With `Nc1nc2cc(-c3ccc4c(N)n[nH]c4c3)ccc2o1` [US11547697, Compound 428], the IC50 is more than 10 µM.

With `Nc1nc2cc(-c3ccc4ncc(N5CCOCC5)n4n3)ccc2o1` [US11547697, Compound 57], the IC50 was more than 10 µM.

For `Nc1nc2cc(-c3ccc4nnc(-c5ccncc5)n4c3)ccc2o1` [US11547697, Compound 229], the IC50 was more than 10 µM.

Consider `CN1CCN(c2cnc3ccc(-c4ccc5nc(N)oc5c4)cc3n2)CC1` [US11547697, Compound 118], for which the IC50 was more than 10 µM.

`C[C@H]1COCCN1C(=O)c1cnc2ccc(-c3ccc4oc(N)nc4c3)cn12` [US11547697, Compound 483] returned an IC50 of more than 10 µM.

Consider `Nc1cn2cc(-c3ccc4oc(N)nc4c3)ccc2n1` [US11547697, Compound 245], for which the IC50 is more than 10 µM.

Regarding `Nc1nc2cc(-c3ccc4nccc(NC5CCOCC5)c4c3)ccc2o1` [US11547697, Compound 32], the IC50 was more than 10 µM.

For the compound `Nc1nc2c(-c3ccc4ncc(C(=O)N5CCOCC5)n4c3)cccc2o1` [US11547697, Compound 496], the IC50 is more than 10 µM.

For the compound `Nc1nc2cc(-c3ccc4ncc(N5CCOCC5)nc4c3)ccc2o1` [US11547697, Compound 64], the IC50 was more than 10 µM.

Consider `Nc1nc2cc(-c3ccc4ncc(C(=O)N5CCCCC5)n4c3)ccc2o1` [US11547697, Compound 196], for which the IC50 is more than 10 µM.

As to `C[C@H]1CN(c2cnc3ccc(-c4ccc5nc(N)oc5c4)cc3n2)CCN1` [US11547697, Compound 309], the IC50 is more than 10 µM.

Turning to `CN(C)C1CN(c2cnc3ccc(-c4ccc5oc(N)nc5c4)cc3n2)C1` [US11547697, Compound 366], the IC50 is more than 10 µM.

Compound `CC(=O)Nc1nc2ccc(-c3ccc4nc(N)oc4c3)cc2s1` [US11547697, Compound 242] came in with an IC50 of more than 10 µM.

`Nc1nc2cc(-c3ccc4ncc(N5CCNC(=O)C5)nc4c3)ccc2o1` [US11547697, Compound 135] showed an IC50 of more than 10 µM.

On to `Cc1cc(-c2ccc3nc(N)oc3c2)cn2c(C(=O)N3CCOCC3)cnc12` [US11547697, Compound 449], for which the IC50 was more than 10 µM.

The compound `Nc1nc2cc(-c3ccc4ncc(N5CC(n6cccn6)C5)nc4c3)ccc2o1` [US11547697, Compound 318] came in with an IC50 of more than 10 µM.

`Cc1nc2ccc(-c3ccc4oc(N)nc4c3)nn2c1-c1ccncc1` [US11547697, Compound 56] displayed an IC50 of more than 10 µM.

In turn, `Nc1nc2ccc(-c3ccc4nc(N)sc4c3)cc2o1` [US11547697, Compound 243] registered an IC50 of more than 10 µM.

As for `Cc1cc(-c2ccc3ncc(C(=O)N4CCOCC4)n3c2)cc2nc(N)oc12` [US11547697, Compound 364], the IC50 is more than 10 µM.

Compound `CC(C)N1CCC(n2cnc3ccc(-c4ccc5oc(N)nc5c4)cc3c2=O)CC1` [US11547697, Compound 74] gave an IC50 of more than 10 µM.

In turn, `CN1CCN(c2cnc3ccc(-c4ccc5nc(N)sc5c4)cc3n2)CC1` [US11547697, Compound 115] yielded an IC50 of more than 10 µM.

Take `Nc1nc2cc(-c3ccc4ncc(-c5cnn(CCO)c5)nc4c3)ccc2o1` [US11547697, Compound 108]: the IC50 is more than 10 µM.

Turning to `Nc1nc2ccc(-c3ccc4ncc(C(=O)N5CCOCC5)n4c3)cc2o1` [US11547697, Compound 124], the IC50 is more than 10 µM.

Regarding `Nc1nc2cc(-c3ccc4ncc(C(=O)N5CC6CCC(C5)O6)n4c3)ccc2o1` [US11547697, Compound 504], the 50% inhibitory concentration (IC50) is more than 10 µM.

The compound `Nc1nc2cc(-c3ccc4ncc(C(=O)N5CCOCC5)n4c3)ccc2s1` [US11547697, Compound 126] showed an IC50 of more than 10 µM.

Compound `Nc1nc2cc(-c3ccc4ncc(C(=O)N5CCOCC5)n4c3)cnc2o1` [US11547697, Compound 400] yielded an IC50 of more than 10 µM.

Turning to `Nc1nc2cc(-c3ccc4ncn(CCO)c(=O)c4c3)ccc2o1` [US11547697, Compound 184], the IC50 is more than 10 µM.

The compound `COCCn1cnc2ccc(-c3ccc4oc(N)nc4c3)cc2c1=O` [US11547697, Compound 272] had an IC50 of more than 10 µM.

`Nc1nc2cc(-c3ccc4ncc(C(=O)N5CC(F)C5)n4c3)ccc2o1` [US11547697, Compound 468] showed an IC50 of more than 10 µM.

In turn, `Nc1nc2cc(-c3ccc4ncn(C5CCNCC5)c(=O)c4c3)ccc2o1` [US11547697, Compound 75] displayed an IC50 of more than 10 µM.

The next test has as its target Phosphatidylinositol 4,5-bisphosphate 3-kinase catalytic subunit beta isoform (Homo sapiens, UniProt P42338). Description: Inhibition Assay of PI3K.
Description: as §1
Take `Nc1ncnc2ccc(-c3ccc4nccc(-c5ccncc5)c4c3)cc12` [US11547697, Compound 8]: the IC50 was more than 10 µM.

`Nc1nc2cc(-c3ccc4ncc(N5CC(N6CCC(O)CC6)C5)nc4c3)ccc2o1` [US11547697, Compound 341] had an IC50 of more than 10 µM.

As to `Nc1nc2ccc(-c3ccc4ncc(C(=O)N5CCOCC5)n4c3)cc2s1` [US11547697, Compound 125], the IC50 was more than 10 µM.

`Nc1ccc2cc(-c3ccc4nccc(-c5ccncc5)c4c3)ccc2n1` [US11547697, Compound 5] gave an IC50 of more than 10 µM.
